Tests used:
[1] = tested on: capsaicin-induced hyperalgesia; assay: Antihyperalgesic effect on capsaicin-induced hyperalgesia, VAS pain assessment, Phase 1b study; type: in vivo, human
Method: On Day 1 and Day 14 of the clinical study, two intradermal injections of 250 μg of capsaicin were injected sequentially into the volar aspect of alternate forearms to produce burning pain, secondary hyperalgesia, and a flare. The capsaicin USP (United States Pharmacopeia) was prepared according to the site's standard procedure and dissolved in 20% cyclodextrin at a concentration of 10 mg/mL. The first capsaicin injection in one forearm was given 1 hour after oral administration of L-4-chlorokynurenine or placebo, and the second capsaicin injection was given in the other forearm 2 hours after the administration of L-4-chlorokynurenine or placebo. The neurosensory testing began immediately at each capsaicin injection. The serial pain assessments using a 100-mm visual analog scale (VAS) occurred at preinjection and 0, 5, 10, 15, 30, 45, and 60 minutes after each capsaicin injection. The examiner asked the subject to rate the intensity by using the VAS of the spontaneous pain and elicited pain from the application of a 5.18 von Frey hair, 40° C. probe, and gentle stroking with a 1-inch foam brush. The VAS consisted of a 100-mm line with “no pain” written at the 0-mm end and the “worst imaginable pain” written at the 100-mm end. The distance in millimeters provided the pain measurement. […] At least eight determinations of the hyperalgesic area borders were made using the same assessments and starting at different angles. Additionally, subjects were asked to rate the pain intensity of a 1-minute 45° C. heat stimulus (brief thermal stimulation) applied to the anterior thigh at 4.5 hours (±5 minutes) after study drug administration, then every 30 minutes (±5 minutes) through 6 hours after study drug administration. A radiant temperature probe was applied to fix the skin temperature at 36° C. during the pain assessments. Subjects used the VAS for all pain assessments. All study assessment time points were anchored to Time 0, the time of study drug administration. […]

[2] = human, in vivo, po
Method: (§1) Subjects were randomized into one of three cohorts (360, 1,080, and 1,440 mg) and received a daily oral dose for 14 consecutive days. […] However, a total of 50 subjects were enrolled in this study. […] Forty-six subjects completed the study per protocol.
(§2) Blood was collected in 6-mL lithium heparin Vacutainer tubes. Samples were centrifuged, and the plasma was separated from the cells and frozen within 30 minutes after centrifugation. Centrifuged samples were placed on ice until they were placed in the freezer. Plasma samples were stored frozen at approximately −20° C. until their shipment to a contractor for analysis.
(§3) Baseline samples (0 minutes) were collected before the drug was administered on Day 1 and on Day 14. Samples were then collected at 0.5, 1, 1.5, 2, 4, 6, 8, 12, and 24 hours after dosing on Day 1 and Day 14.
(§4) Both assays used a plasma sample volume of 50.0 μg/mL.

[3] = tested on: three animal models of peripheral tissue inflammation and nerve injury; assay: Animal models of peripheral tissue inflammation and nerve injury; type: in vivo
[4] = tested on: patients with obsessive-compulsive disorder; assay: Treatment of obsessive-compulsive disorder, OCD-VAS / Y-BOCS; type: in vivo, human; conditions: about 20 to about 2,000 mg/day
Method: Patients with obsessive-compulsive disorder (OCD) are treated with L-4-chlorokynurenine to reduce OCD symptoms. […] The dose of L-4-chlorokynurenine is selected from about 20 mg/day up to about 2,000 mg/day, more preferably about 300 mg/day to about 1,500 mg/day and more preferably about 700 mg/day to about 1,200 mg/day.

[5] = tested on: patients with chronic tinnitus; assay: Treatment of tinnitus, TQ / SF-36 / audiometric parameters (Example 5); type: in vivo, human; conditions: daily oral dose escalated 180, 720, 1440 mg/day
Method: One hundred male or female patients between 20-65 years of age with mon- or binaural chronic tinnitus lasting for at least 3-months are enrolled in the study. Patients are randomized into a drug and placebo groups, baseline psychometric and health measurements are taken, followed by blind administration of a daily single oral dose for 14-days of either L-4-chlorokynurenine (initial dose of 180 mg) or placebo. Subsequent psychometric and health measurements are taken at 3-, 7-, and 14-days post (prior to next drug administration) drug administration. At 14, and 28 days the dose of AV-101 is increased to 720 and 1440 mg/day respectively. At 42 and 70 days, all patients are given the panel of psychometric and health measurements. […]
Primary success measures are a statistically significant difference between the mean TQ scores of L-4-chlorokynurenine and placebo groups. […] Student t-test for independent samples or the Mann-Whitney test at each time point are used to assess the statistical significance of the quantitative data. The significance of the qualitative data is assessed with chi-square test or the Fisher exact test. To assess improvement over time and dose, TQ and secondary measurements are evaluated using Friedman Variance Analysis and similar tools for variance analysis.

[6] = tested on: patients with a diagnosis of MDD; assay: Treatment of major depressive disorder, HDRS / MADRS (Example 3); type: in vivo, human; conditions: 1,080 or 1,440 mg/day orally for 2 weeks
Method: Twenty-five patients, both male and female, ages 18 to 65, with a diagnosis of MDD are treated with either L-4-chlorokynurenine (1,080 or 1,440 mg/day given orally) for 2 weeks, similar in design to similar studies. [Ibrahim et al. 2012, Zarate et al. 2013, Zarate et al. 2006, Zarate et al. 2005.] […] [Montgomery et al. 1979] Additional indicators of therapeutic efficacy for a given patient could also be the proportion of subjects achieving remission (HDRS≤7) and response (≥50% reduction from baseline in HDRS total score); change from baseline in Hamilton Anxiety Rating Scale (HAM-A) [Hamilton 1959], Columbia Suicide Severity Rating Scale (C-SSRS) total scores [Posner et al. 2011], as well as other measures of mood or psychological states, for example Beck Depression Inventory (BDI) [Beck et al., 1974], the Visual Analogue Scale (VAS) [Aitken 1969], the Brief Psychiatric Rating Scale (BPRS) [Overall et al. 1962], the Clinician Administered Dissociative Scale (CADSS) [Bremner et al. 1998] and the Young Mania Rating Scale (YMRS) [Young et al. 1978].

[7] = tested on: dopaminergic neurons; conditions: brains of rats; cited from earlier work
[8] = cited from earlier work
[9] = Phase 1b clinical study, plasma pharmacokinetics after oral L-4-chlorokynurenine (LC-MS/MS); conditions: human plasma
Method: as §1, §2, §3, §4

[10] = molecular target: NMDA receptor glycine B (GlyB) coagonist site (Homo sapiens, UniProt Q05586); conditions: vs naturally occurring kynurenic acid; cited from earlier work

For `Nc1cc(Cl)ccc1C(=O)CC(N)C(=O)O` [L-4-chlorokynurenine], the “Least squares means of the AUPC for allodynia pain, mechanical hyperalgesia pain and heat hyperalgesia pain vs placebo” value ([1]; 1,080 mg (Cohort 2)) was “consistent decrease”, the “Secondary efficacy endpoints (AUPC spontaneous pain, elicited pain von Frey hair, 40° C. probe), treatment vs placebo” value ([1]; 120 to 180 min Day 1, 60 to 180 min Days 1 and 14) was “no significant changes” and the “Area under the pain time curve (AUPC) for spontaneous pain, treatment vs placebo (primary efficacy endpoint)” value ([1]; each dose level, 120 to 180 minutes after dosing on Day 14) was “no significant change”. For the same compound, the “Mean L-4-chlorokynurenine AIC0-t” value [2] was 196000 ng·h/mL, the “Mean L-4-chlorokynurenine Cmax and AIC0-t on Day 14 compared with Day 1” value [2] was “slightly lower on Day 14” and the “Mean t1/2 of L-4-chlorokynurenine” value [2] was 1.64 to 1.82 h. The “Antihyperalgesic action in animal models” value [3] was “potent antihyperalgesic actions”, the “OCD symptoms (OCD-VAS, Y-BOCS)” value [4] was “Patients show improvement” and the “Symptoms of tinnitus (TQ, SF-36)” value [5] was “show improvement”. The “HDRS and/or MADRS total scores (overall depressive symptomatology)” value [6] was “significant decrease”, the “Firing rate and burst firing activity of dopaminergic neurons” value [7] was “increase” and the “Access to the central nervous system” value ([8]; after oral or parenteral administration) was “readily gains access to the central nervous system”.
For `O=C(O)c1cc(O)c2ccc(Cl)cc2n1` [7-chlorokynurenic acid], the “Mean 7-chlorokynurenic acid AIC0-t” value ([9]; Day 1, after 1,440-mg oral dose of L-4-chlorokynurenine) was 985 ng·h/mL, the “Mean 7-chlorokynurenic acid AIC0-t” value ([9]; Day 1, after lowest oral dose (360 mg) of L-4-chlorokynurenine) was 156 ng·h/mL and the “Mean 7-chlorokynurenic acid Cmax and AIC0-t on Day 14 compared with Day 1” value ([9]; once-daily oral doses of L-4-chlorokynurenine for 14 days) was “slightly lower on Day 14”. The “Potency and selectivity relative to endogenous KYNA” value [10] was “about 20 ×” and the “Crossing of the blood-brain barrier” value ([8]; in vivo) was “does not cross the blood-brain barrier”.

Reference: US20240122887A1, “THERAPEUTIC USES OF L-4-CHLOROKYNURENINE” (VISTAGEN THERAPEUTICS, INC., priority 2015, published 2024)
